# Source: patent US7332501B2, “Indol-3-yl-carbonyl-spiro-piperidine derivatives as V1a receptor antagonists” (Hoffmann-La Roche Inc., priority 2005, dated 2008)
# Structures can show the parent of a compound that is named as a salt.
# Molecular target: T1, human V1a receptor (Homo sapiens, UniProt P37288)
# T1 construct: expressed in transfected cells; host or cells: HEK293 cells, transiently transfected; cell membranes
# Experiment: human V1a receptor binding (3H-Vasopressin SPA, HEK293 membranes)
# Details: displacement of 4 nM 3H-Vasopressin, membranes of HEK293 cells transiently transfected with human V1a receptor; Ki from IC50 by Cheng-Prussoff
# How it was run: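 Transiently transfected HEK293 membranes on yttrium silicate SPA beads in Tris binding buffer (120 mM NaCl, 5 mM KCl, 2 mM CaCl2, 10 mM MgCl2). 3H-vasopressin added as 4 nM working solution; excess cold vasopressin set non-specific binding. 1 h at room temperature, then counting; Ki from fitted IC50 via Cheng-Prusoff.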
# T1 sequence (P37288 whole entry): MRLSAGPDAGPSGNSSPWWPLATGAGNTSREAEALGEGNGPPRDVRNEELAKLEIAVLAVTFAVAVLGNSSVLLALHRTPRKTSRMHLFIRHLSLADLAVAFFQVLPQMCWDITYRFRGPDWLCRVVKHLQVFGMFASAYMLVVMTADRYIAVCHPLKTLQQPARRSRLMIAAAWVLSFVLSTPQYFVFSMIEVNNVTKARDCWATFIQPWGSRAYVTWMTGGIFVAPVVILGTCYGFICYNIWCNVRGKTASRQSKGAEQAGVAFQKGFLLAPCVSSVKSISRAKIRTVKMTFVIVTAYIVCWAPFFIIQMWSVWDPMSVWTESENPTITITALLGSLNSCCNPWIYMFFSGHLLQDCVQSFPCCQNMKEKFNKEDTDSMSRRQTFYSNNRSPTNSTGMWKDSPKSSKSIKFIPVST
row,SMILES,Ki
1,"O=C1OC2(CCN(C(=O)c3cn(CCc4ccncc4)c4cc(Cl)ccc34)CC2)c2ccc(F)cc21 [Example 167, 1′-{[6-Chloro-1-(2-pyridin-4-ylethyl)-1H-indol-3-yl]carbonyl}-5-fluoro-3H-spiro[2-benzofuran-1,4′-piperidin]-3-one]",3 nM
2,"Cc1cc(Cn2cc(C(=O)N3CCC4(CC3)OCc3ccccc34)c3ccc(Cl)cc32)ccn1 [Example 260, 1′-({6-Chloro-1-[(2-methylpyridin-4-yl)methyl]-1H-indol-3-yl}carbonyl)-3H-spiro[2-benzofuran-1,4′-piperidine]]",2.8 nM
3,"CN(C)CCn1cc(C(=O)N2CCC3(CC2)OC(=O)c2cc(F)ccc23)c2ccc(Cl)cc21 [Example 111, 1′-({6-Chloro-1-[2-(dimethylamino)ethyl]-1H-indol-3-yl}carbonyl)-5-fluoro-3H-spiro[2-benzofuran-1,4′-piperidin]-3-one]",2.4 nM
4,"N#CCC1(Cn2cc(C(=O)N3CCC4(CC3)OC(=O)c3ccccc34)c3ccc(Cl)cc32)CC1 [Example 193, [1-({6-Chloro-3-[(3-oxo-1′H,3H-spiro[2-benzofuran-1,4′-piperidin]-1′-yl)carbonyl]-1H-indol-1-yl}methyl)cyclopropyl]acetonitrile]",2.1 nM
5,"Cc1c(C(=O)N2CCC3(CC2)OC(=O)c2ccc(Cl)cc23)c2ccccc2n1Cc1ccccc1 [Example 10, 1′-[(1-benzyl-2-methyl-1H-indol-3-yl)carbonyl]-6-chloro-3H-spiro[2-benzofuran-1,4′-piperidin]-3-one]",12.7 nM
6,"O=C(Cn1cc(C(=O)N2CCC3(CC2)OCc2ccccc23)c2ccc(Cl)cc21)N1CCCCC1 [Example 204, 1′-{[6-Chloro-1-(2-oxo-2-piperidin-1-ylethyl)-1H-indol-3-yl]carbonyl}-3H-spiro[2-benzofuran-1,4′-piperidine]]",1.1 nM
7,"O=C1OC2(CCN(C(=O)c3cn(Cc4cc(F)cc(F)c4)c4cc(Cl)ccc34)CC2)c2ccccc21 [Example 133, 1′-{[6-Chloro-1-(3,5-difluorobenzyl)-1H-indol-3-yl]carbonyl}-3H-spiro[2-benzofuran-1,4′-piperidin]-3-one]",0.9 nM
8,"O=C(c1cn(CC2CN(Cc3ccccc3)CCO2)c2cc(Cl)ccc12)N1CCC2(CC1)OCc1ccccc12 (centres unmarked) [Example 232, 1′-({1-[(4-Benzylmorpholin-2-yl)methyl]-6-chloro-1H-indol-3-yl}carbonyl)-3H-spiro[2-benzofuran-1,4′-piperidine]]",5 nM
9,"CC(C)(C)OC(=O)N1CCn2c(c(C(=O)N3CCC4(CC3)OCc3ccccc34)c3ccccc32)C1 [Example 274, tert-Butyl 10-(1′H,3H-spiro[2-benzofuran-1,4′-piperidin]-1′-ylcarbonyl)-3,4-dihydropyrazino[1,2-a]indole-2(1H)-carboxylate]",25.1 nM
10,"CCN(CC)C(=O)Cn1cc(C(=O)N2CCC3(CC2)OCc2ccccc23)c2ccc(Cl)cc21 [Example 207, 2-[6-Chloro-3-(1′H,3H-spiro[2-benzofuran-1,4′-piperidin]-1′-ylcarbonyl)-1H-indol-1-yl]-N,N-diethylacetamide]",1.1 nM
11,"O=C(Cn1cc(C(=O)N2CCC3(CC2)OC(=O)c2cc(Br)ccc23)c2ccc(Cl)cc21)c1cccc(F)c1 [Example 152, 5-Bromo-1′-({6-chloro-1-[2-(3-fluorophenyl)-2-oxoethyl]-1H-indol-3-yl}carbonyl)-3H-spiro[2-benzofuran-1,4′-piperidin]-3-one]",4.4 nM
12,"N#CCCn1cc(C(=O)N2CCC3(CC2)OC(=O)c2cc(F)ccc23)c2ccc(Cl)cc21 [Example 175, 3-{6-Chloro-3-[(5-fluoro-3-oxo-1′H,3H-spiro[2-benzofuran-1,4′-piperidin]-1′-yl)carbonyl]-1H-indol-1-yl}propanenitrile]",2.5 nM
13,"Cc1cc(C)cc(Cn2c(C)c(C(=O)N3CCC4(CC3)OCc3ccccc34)c3ccccc32)c1 [Example 49, 1′-{[1-(3,5-dimethylbenzyl)-2-methyl-1H-indol-3-yl]carbonyl}-3H-spiro[2-benzofuran-1,4′-piperidine]]",2.4 nM
14,"O=C(c1c2n(c3ccccc13)CCNC2)N1CCC2(CC1)OCc1ccccc12 [Example 275, 1′-(1,2,3,4-Tetrahydropyrazino[1,2-a]indol-10-ylcarbonyl)-3H-spiro[2-benzofuran-1,4′-piperidine]hydrochloride]",15.7 nM
15,"O=C1OC2(CCN(C(=O)c3cn(CC4(F)COC4)c4cc(Cl)ccc34)CC2)c2ccc(F)cc21 [Example 188, 1′-({6-Chloro-1-[(3-fluorooxetan-3-yl)methyl]-1H-indol-3-yl}carbonyl)-5-fluoro-3H-spiro[2-benzofuran-1,4′-piperidin]-3-one]",1.6 nM
16,"N#CCn1cc(C(=O)N2CCC3(CC2)OC(=O)c2ccccc23)c2ccc(Cl)cc21 [Example 37, {6-chloro-3-[(3-oxo-1′H,3H-spiro[2-benzofuran-1,4′-piperidin]-1′-yl)carbonyl]-1H-indol-1-yl}acetonitrile]",6.3 nM

row,SMILES,Ki
1,"N#CCC1(Cn2cc(C(=O)N3CCC4(CC3)OCc3ccccc34)c3ccc(Cl)cc32)CC1 [Example 245, (1-{[6-Chloro-3-(1′H,3H-spiro[2-benzofuran-1,4′-piperidin]-1′-ylcarbonyl) -1H-indol-1-yl]methyl}cyclopropyl)acetonitrile]",1.7 nM
2,"NC(=O)Cn1cc(C(=O)N2CCC3(CC2)OC(=O)c2cc(F)ccc23)c2ccc(Cl)cc21 [Example 115, 2-{6-Chloro-3-[(5-fluoro-3-oxo-1′H,3H-spiro[2-benzofuran-1,4′-piperidin]-1′-yl)carbonyl]-1H-indol-1-yl}acetamide]",10.4 nM
3,"O=C(c1cn(Cc2ccccc2)c2ccccc12)N1CCC2(CC1)OCc1ccccc12 [Example 68, 1′-[(1-benzyl-1H-indol-3-yl)carbonyl]-3H-spiro[2-benzofuran-1,4′-piperidine]]",6.9 nM
4,"O=C(c1cn(C[C@H]2CCCNC2)c2cc(Cl)ccc12)N1CCC2(CC1)OCc1ccccc12 [Example 261, 1′-({6-Chloro-1-[(3S)-piperidin-3-ylmethyl]-1H-indol-3-yl}carbonyl)-3H-spiro[2-benzofuran-1,4′-piperidine]]",1.7 nM
5,"CN1CCC[C@H](Cn2cc(C(=O)N3CCC4(CC3)OCc3ccccc34)c3ccc(Cl)cc32)C1 [Example 265, 1′-[(6-Chloro-1-{[(3S)-1-methylpiperidin-3-yl]methyl}-1H-indol-3-yl)carbonyl]-3H-spiro[2-benzofuran-1,4′-piperidine]]",1.4 nM
6,"O=C1OC2(CCN(C(=O)c3c[nH]c4cc(Cl)ccc34)CC2)c2cc(Cl)ccc21 [Example 20, 6-chloro-1′-[(6-chloro-1H-indol-3-yl)carbonyl]-3H-spiro[2-benzofuran-1,4′-piperidin]-3-one]",15.8 nM
7,"CN(C)CCn1cc(C(=O)N2CCC3(CC2)OCc2ccccc23)c2ccc(Cl)cc21 [Example 210, 2-[6-Chloro-3-(1′H,3H-spiro[2-benzofuran-1,4′-piperidin]-1′-ylcarbonyl)-1H-indol-1-yl]-N,N-dimethylethanamine]",1 nM
8,"Cc1oc(-c2ccccc2)nc1C(=O)Cn1cc(C(=O)N2CCC3(CC2)OC(=O)c2cc(F)ccc23)c2ccc(Cl)cc21 [Example 170, 1′-({6-Chloro-1-[2-(5-methyl-2-phenyl-1,3-oxazol-4-yl)-2-oxoethyl]-1H-indol-3-yl}carbonyl)-5-fluoro-3H-spiro[2-benzofuran-1,4′-piperidin]-3-one]",2.2 nM
9,"O=C1OC2(CCN(C(=O)c3cn(-c4cc(F)cc(F)c4)c4cc(Cl)ccc34)CC2)c2ccccc21 [Example 127, 1′-{[6-Chloro-1-(3,5-difluorophenyl)-1H-indol-3-yl]carbonyl}-3H-spiro[2-benzofuran-1,4′-piperidin]-3-one]",3 nM
10,"Cc1cc(Cn2cc(C(=O)N3CCC4(CC3)OC(=O)c3cc(F)ccc34)c3ccc(Cl)cc32)on1 [Example 184, 1′-({6-Chloro-1-[(3-methylisoxazol-5-yl)methyl]-1H-indol-3-yl}carbonyl)-5-fluoro-3H-spiro[2-benzofuran-1,4′-piperidin]-3-one]",3.4 nM
11,"Cc1nc(Cn2cc(C(=O)N3CCC4(CC3)OC(=O)c3cc(F)ccc34)c3ccc(Cl)cc32)c(C)o1 [Example 187, 1′-({6-Chloro-1-[(2,5-dimethyl-1,3-oxazol-4-yl)methyl]-1H-indol-3-yl}carbonyl)-5-fluoro-3H-spiro[2-benzofuran-1,4′-piperidin]-3-one]",3.6 nM
12,CN1CCC[C@H]1Cn1cc(C(=O)N2CCC3(CC2)OCc2ccccc23)c2ccc(Cl)cc21 [Example 268],0.07 nM
13,"Cn1cncc1Cn1cc(C(=O)N2CCC3(CC2)OC(=O)c2cc(F)ccc23)c2ccc(Cl)cc21 [Example 183, 1′-({6-Chloro-1-[(1-methyl-1H-imidazol-5-yl)methyl]-1H-indol-3-yl}carbonyl)-5-fluoro-3H-spiro[2-benzofuran-1,4′-piperidin]-3-one]",5.2 nM
14,"Cc1c(C(=O)N2CCC3(CC2)OCc2ccccc23)c2ccccc2n1Cc1ccccc1Cl [Example 53, 1′-{[1-(2-chlorobenzyl)-2-methyl-1H-indol-3-yl]carbonyl}-3H-spiro[2-benzofuran-1,4′-piperidine]]",1.7 nM
15,"O=C1OC2(CCN(C(=O)c3cn(CC(=O)N4CCOCC4)c4cc(Cl)ccc34)CC2)c2ccc(F)cc21 [Example 113, 1′-{[6-Chloro-1-(2-morpholin-4-yl-2-oxoethyl)-1H-indol-3-yl]carbonyl}-5-fluoro-3H-spiro[2-benzofuran-1,4′-piperidin]-3-one]",1.1 nM
16,"Cc1c(C(=O)N2CCC3(CC2)OCc2ccccc23)c2ccccc2n1C(=O)c1ccccc1 [Example 44, 1′-[(1-benzoyl-2-methyl-1H-indol-3-yl)carbonyl]-3H-spiro[2-benzofuran-1,4′-piperidine]]",11 nM
